Source: US20230087994A1, “TARGETED BIFUNCTIONAL DEGRADERS” (YALE UNIVERSITY, priority 2019, published 2023)
Values belong to the molecule of their own block, whether it stands above or below them.

Key:
PC3 cells = test: Human prostate cancer PC3 tumor growth in mice; type: in vivo; conditions: control and comparator arms; FIG. 138
Experimental: The ability of MIF-GN3 to mediate the depletion of MIF in a therapeutically relevant disease model was investigated. […] An experiment was conducted to determine whether the bifunctional molecule MIF-GN3 can deplete sufficient human MIF from serum to slow PC3 tumor growth. Mice were injected with an aliquot of PC3 cells, and the size of the resultant tumors as well as the levels of human MIF in serum were monitored over five weeks. […] Five weeks after the initial PC3 cell injection, the first of the mice reached maximal tumor size ([…]) and was sacrificed (FIG. 138). […] The decrease in human MIF levels mediated by MIF-GN3 is consistent with a mechanism of action in which MIF-GN3 mediates the depletion and degradation of circulating MIF protein. While the α-MIF antibody would not necessarily be expected to decrease the levels of human MIF, it is possible that the antibody mediates MIF neutralization in a manner which masks its signal as determined by ELISA. Alternatively, the α-MIF antibody may mediate depletion or degradation of huMIF by some endocytic mechanism. Another possible explanation is that the α-MIF antibody decrease serum levels of active human MIF to such an extent at early time points that PC3 cells proliferate much more slowly, and therefore fewer cells are actively secreting human MIF.
Mice were sacrificed when their tumor volumes reached 1000 mm^3. […] At this same time point, less than 25% of the mice in any other arm had survived.

human MIF [1] = molecular target: T1, human MIF (Homo sapiens, UniProt P14174); test: Depletion of injected recombinant human MIF from serum in mice; type: in vivo; parameters: injected into mice; conditions: control molecules; FIG. 136
T1 sequence (P14174 2-115 limits assumed): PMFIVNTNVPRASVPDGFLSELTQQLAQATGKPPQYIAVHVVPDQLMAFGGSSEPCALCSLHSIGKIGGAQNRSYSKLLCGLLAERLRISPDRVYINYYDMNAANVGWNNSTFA
Experimental: In vivo human MIF depletion experiments were undertaken to determine whether MIF-GN3 can mediate the depletion of injected recombinant human MIF from serum in mice. Mice were injected with five μg of the human MIF protein. In this experiment, one group of mice was also injected with a single 10 mpk dose of MIF-GN3 along with human MIF protein. It was observed that after four hours, the average level of human MIF in serum in the PBS-treated mice was 1.76 ng/mL (FIG. 134). In mice treated with 10 mpk MIF-GN3, however, the concentration of human MIF in serum was 0.68 ng/mL. One day after the initial injection, human MIF levels had reached background levels for both conditions. […] It was hypothesized that, due to the short half-life of human MIF in serum, investigating human MIF levels at earlier time points may be more informative.
Next, an experiment was performed to determine whether MIF-GN3 could enhance MIF clearance at time points earlier than four hours. Mice were coinjected with recombinant human MIF and 10 mpk MIF-GN3 via either i.p. or i.v. routes. For the PBS control arms, human MIF was injected with PBS. It was observed that in the absence of MIF-GN3, there was a spike in huMIF levels in circulation after 30 minutes (FIG. 135). In the presence of MIF-GN3, however, levels of MIF protein remained low at 30 minutes and no spike in its concentration was observed. By two hours, the levels of human MIF in circulation decreased to background levels. […] In a further experiment, whether an inhibitor of the MIF protein (3w) is able to mediate the protein's depletion from serum was determined. A bifunctional molecule that mediates the depletion of α-DNP antibody from serum was also assayed as a negative control. Neither of these molecules was expected to mediate the formation of a ternary complex between human MIF protein and ASGPR.
In order to confirm that mice injected with one or ten mpk MIF-GN3 had received the injection, and that the observed stability of MIF concentrations in MIF-GN3 treated mice was not the result of injection error, 200 μg of α-DNP antibody was coinjected with the MIF protein in this experiment. […] An investigation of the ability of MIF-GN3 to mediate the depletion of endogenous mouse MIF in vivo was next undertaken. Mice were treated with either PBS or 10 mpk of MIF-GN3. […] One possible explanation for this finding is that MIF protein may be synthesized rapidly, and any increase in degradation mediated by MIF-GN3 may not be of a large enough magnitude to impact the protein's level in serum.

human MIF [2] = molecular target: T1, human MIF; test: Depletion of human MIF from cell culture supernatant (sandwich ELISA); type: cell-based; parameters: host or cells: exogenous protein added to cell culture; conditions: 24 hours; FIG. 128B
Experimental: The ability of bifunctional MIF-binding molecules to mediate the depletion of human MIF from cell culture was investigated. In these assays, human MIF was present at a concentration of 100 nM, and a sandwich ELISA assay was utilized to measure the concentration of human MIF remaining in the cell culture supernatant. The closely related bifunctional molecules MIF-GN3, MIF-PEG2-GN3, and MIF-PEG4-GN3 were used, as well as the structurally dissimilar molecule MIF-NVS-PEG3-GN3. […] Based on the ease of its synthesis and its efficacy in this experiment, MIF-GN3 was utilized for further studies. It was next investigated whether the MIF inhibitor 3w mediates MIF depletion from cell culture supernatant. […] When cells were treated with 3w, no depletion of exogenous MIF protein was observed after 24 hours (FIG. 128B).

[3] = molecular target: human IgG (fluorescently labeled) (human); test: cell-based or functional assay
HepG2 cells [4] = test: DNP-GN3-mediated endocytosis of fluorescently labeled α-DNP antibody by adherent HepG2 cells; type: cell-based, human; conditions: DNP-GN3-mediated uptake; FIG. 89
Experimental: It was next explored whether DNP-GN3 mediates the endocytosis of fluorescently labeled α-DNP antibody.
To explore the cellular mechanism of antibody uptake, cells were treated with chemical inhibitors of several endocytic pathways (FIG. 89).

HepG2 cells [5] = test: DNP-AF3-mediated endocytosis of fluorescently labeled α-DNP antibody by HepG2 cells (flow cytometry); type: cell-based, human; conditions: 40 nM DNP-AF3, 100 nM antibody; for effect of endocytic pathway inhibitors on fluorescence of the cell population: FIG. 106
Experimental: The intracellular fluorescence of cells that were incubated at 37° C. with both fluorescently labeled α-DNP antibody and DNP-AF3 for a given amount of time was examined. Cells were then washed, removed from the plate with trypsin, and subjected to flow cytometry. Trypsin treatment is expected to cleave ASGPR and surface-bound α-DNP antibody from cells, and therefore the cellular fluorescence observed in these assays is expected to arise only from internalized antibodies.
It was then determined if reagents which inhibit ternary complex formation inhibit endocytosis mediated by DNP-AF3. In order to account for non-specific antibody association with cells, the mean fluorescence intensity of an aliquot of cells which had been treated with α-DNP antibody but not DNP-AF3 was subtracted from each reading. […] In the presence of 2.38 μM (0.1 mg/mL) ASOR, the cell population fluorescence was decreased to 4.66e5 (FIG. 105); at this ASOR concentration, ternary complex formation is decreased by approximately 70%. Because ternary complex is not inhibited completely at this concentration of ASOR, it is expected that productive endocytic events are still taking place.

HepG2 cells [6] = test: MIF-GN3-mediated endocytosis of fluorescently labeled human MIF by HepG2 cells; conditions: 100 nM MIF, 200 nM MIF-GN3; FIG. 132
Experimental: Human MIF protein was fluorescently labeled with Alexa 488 NHS ester, then incubated with HepG2 cells in the presence of varying levels of MIF-GN3.
Next, inhibitors of various endocytic pathways were utilized to determine if MIF-GN3 mediates MIF endocytosis in a manner consistent with ASGPR (FIG. 132).

[7] = molecular target: T2, ASGPR on the surface of immortalized human hepatocyte HepG2 cells (Homo sapiens, UniProt P07306+P07307); test: DNP-GN3-mediated ternary complex formation: association of fluorescently labeled α-DNP antibody with HepG2 cells in suspension; type: cell-based
T2 sequence (P07306 1-291): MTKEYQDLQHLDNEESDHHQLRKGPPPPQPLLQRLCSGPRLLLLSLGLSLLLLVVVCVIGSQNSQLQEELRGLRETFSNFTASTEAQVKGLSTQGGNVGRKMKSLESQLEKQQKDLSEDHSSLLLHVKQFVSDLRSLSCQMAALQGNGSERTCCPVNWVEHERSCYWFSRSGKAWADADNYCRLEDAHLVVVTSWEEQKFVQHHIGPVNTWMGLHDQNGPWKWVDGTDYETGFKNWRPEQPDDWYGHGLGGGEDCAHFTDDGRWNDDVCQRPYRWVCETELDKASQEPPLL
T2 sequence (P07307 1-311): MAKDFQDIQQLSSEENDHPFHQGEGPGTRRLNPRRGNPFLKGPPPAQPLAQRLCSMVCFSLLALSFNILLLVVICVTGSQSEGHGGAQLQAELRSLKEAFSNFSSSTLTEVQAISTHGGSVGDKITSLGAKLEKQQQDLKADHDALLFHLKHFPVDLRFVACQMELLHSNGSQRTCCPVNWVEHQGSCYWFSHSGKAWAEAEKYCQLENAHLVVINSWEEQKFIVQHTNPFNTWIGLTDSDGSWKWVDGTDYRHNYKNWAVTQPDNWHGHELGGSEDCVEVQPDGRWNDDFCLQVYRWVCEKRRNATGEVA
Source text: It was investigated whether DNP-GN3 could mediate the formation of a ternary complex between a fluorescently labeled α-DNP antibody and ASGPR on the surface of immortalized human hepatocyte HepG2 cells in suspension. […] The observed bell-shaped response to DNP-GN3 concentration is consistent with the prozone effect commonly observed in systems wherein a ternary complex is formed.

HepG2 cells [8] = test: DNP-GN3-mediated endocytosis of fluorescently labeled α-DNP antibody by adherent HepG2 cells; type: cell-based, human; conditions: competitive binders at high concentrations; FIG. 88
[9] = molecular target: T3, asialoglycoprotein receptor (ASGPR) on the surface of immortalized human hepatocyte HepG2 cells (human) (UniProt P07306); test: competition, flow cytometry: inhibition of DNP-GN3-mediated association of fluorescent α-DNP antibody with HepG2 cells in suspension (ASGPR on cells)
T3 sequence (looked up) 1: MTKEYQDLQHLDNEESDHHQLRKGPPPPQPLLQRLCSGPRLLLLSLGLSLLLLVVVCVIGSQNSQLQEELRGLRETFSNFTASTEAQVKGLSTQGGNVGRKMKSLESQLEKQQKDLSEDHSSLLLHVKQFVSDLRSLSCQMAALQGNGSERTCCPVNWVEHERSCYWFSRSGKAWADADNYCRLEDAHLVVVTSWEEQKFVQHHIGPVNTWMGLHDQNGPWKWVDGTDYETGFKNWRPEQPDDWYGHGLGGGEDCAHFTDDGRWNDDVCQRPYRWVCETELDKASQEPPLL
T3 sequence (looked up) 2: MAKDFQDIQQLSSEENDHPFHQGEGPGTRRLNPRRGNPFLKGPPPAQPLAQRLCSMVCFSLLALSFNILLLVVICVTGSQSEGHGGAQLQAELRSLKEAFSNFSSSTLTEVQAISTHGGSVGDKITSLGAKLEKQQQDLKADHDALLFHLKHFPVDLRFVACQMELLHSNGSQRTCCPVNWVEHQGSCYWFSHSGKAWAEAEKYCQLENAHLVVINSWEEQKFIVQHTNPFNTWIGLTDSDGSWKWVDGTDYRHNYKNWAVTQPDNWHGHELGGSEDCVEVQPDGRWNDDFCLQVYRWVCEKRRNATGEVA

human MIF concentration in serum compared to the PBS control (human MIF [1]): no significant decreases
depletion of exogenous MIF protein from supernatant (human MIF [2]): no depletion
Molecule: Oc1ccc(-n2cc(-c3ccc4cc(OCCOCCN5CCOCC5)ccc4n3)nn2)cc1F [Compound 3w, reference compound]
PC3 tumor growth (PC3 cells): not found to decrease tumor growth

endocytosis of Alexa 488-labeled human IgG by HepG2 cells (flow cytometry, six hours): FcIII-GN3 concentration giving maximal uptake [3]: 200 nM
Molecule: FcIII-GN3 (oxidized cyclized form) (peptide)

Molecule: N=C(N)NC(=O)c1nc(Cl)c(N)nc1N [amiloride, Amiloride]
effect of endocytic pathway inhibitors on intracellular fluorescence (HepG2 cells [4]): did not significantly decrease
effect of endocytic pathway inhibitors on fluorescence of the cell population (HepG2 cells [5]): A decrease in cellular fluorescence
effect of endocytic pathway inhibitors on MIF-GN3-mediated MIF endocytosis (HepG2 cells [6]): did not impact cellular fluorescence significantly

Molecule: COc1ccc2c(c1)c(CC(=O)O)c(C)n2C(=O)c1ccc(Cl)cc1 [indomethacin, Indomethacin]
effect of endocytic pathway inhibitors on fluorescence of the cell population (HepG2 cells [5]): did not significantly decrease
effect of endocytic pathway inhibitors on MIF-GN3-mediated MIF endocytosis (HepG2 cells [6]): did not decrease

Molecule: CC(=O)N[C@H]1C(O)O[C@H](CO)[C@H](O)[C@@H]1O (stereo partly shown) [GalNAc, N-acetylgalactosamine]
IC50 [7]: 200 µM
effect on DNP-AF3-mediated α-DNP antibody endocytosis (HepG2 cells [5]; ASF 2.07 μM, AF and GalNAc 1.25 mM, FIG. 105): significantly decreased cellular fluorescence
effect on DNP-GN3-mediated α-DNP antibody endocytosis (HepG2 cells [8]): significantly decreased

B1: asialofetuin (ligand, UniProt P12763 19-359, looked up, species assumed)
Alpha-2-HS-glycoprotein: IPLDPVAGYKEPACDDPDTEQAALAAVDYINKHLPRGYKHTLNQIDSVKVWPRRPTGEVYDIEIDTLETTCHVLDPTPLANCSVRQQTQHAVEGDCDIHVLKQDGQFSVLFTKCDSSPDSAEDVRKLCPDCPLLAPLNDSRVVHAVEVALATFNAESNGSYLQLVEISRAQFVPLPVSVSVEFAVAATDCIAKEVVDPTKCNLLAEKQYGFCKGSVIQKALGGEDVRVTCTLFQTQPVIPQPQPDGAEAEAPSAVPDAAGPTPSAAGPPVASVVVGPSVVAVPLPLHRAHYDLRHTFSGVASVESSSGEAFHVGKTPIVGQPSIPGGPVRLCPGRIRYFKI
modifications: desialylated
IC50 [9]: 0.065 µM
